Where “and” joins values, the source holds several entries; their conditions need not be identical. Equal values may be shown once. Inconclusive results and toxic doses are left out.

The assay has as its system CD2F1 mice, L1210 leukemia ip, survival T/C. Description: NCI In Vivo Anticancer Drug Screen. Data for tumor model L1210 Leukemia (intraperitoneal) in CD2F1 (CDF1) mice. Particulars: endpoint: mean survival time, higher = longer survival. The gist of the method: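 Each value reflects a quotient of treated over vehicle control outcomes in mice with a transplanted tumor.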

Setting [1] is: dose: 100.0 mg/kg/injection, schedule: Q04DX003 (ip), vehicle: saline with Tween-80.
Where [2] appears, read: dose: 200.0 mg/kg/injection, schedule: Q04DX003 (ip), vehicle: saline with Tween-80.
[3] abbreviates: dose: 400.0 mg/kg/injection, schedule: Q04DX003 (ip), vehicle: saline with Tween-80.
Where [4] appears, read: dose: 100.0 mg/kg/injection, schedule: Q01DX009 (ip), vehicle: saline with Tween-80.
Setting [5] is: dose: 100.0 mg/kg/injection, schedule: Q01DX001 (ip), vehicle: saline with Tween-80.
The mark [6] stands for this setting: dose: 200.0 mg/kg/injection, schedule: Q01DX001 (ip), vehicle: saline with Tween-80.
Where [7] appears, read: dose: 400.0 mg/kg/injection, schedule: Q01DX001 (ip), vehicle: saline with Tween-80.

With `C/C(=N\N=C(N)N)c1ccc(NC(=O)Nc2ccc(/C(C)=N/N=C(N)N)cc2)cc1`, the T/C was 155 % of control (dose: 25.0 mg/kg/injection, schedule: Q01DX005 (ip), vehicle: saline); 155 % of control (dose: 25.0 mg/kg/injection, schedule: Q01DX009 (ip), vehicle: saline); 101 % of control (dose: 25.0 mg/kg/injection, schedule: Q01DX009 (sc), vehicle: saline); 185 % of control (dose: 50.0 mg/kg/injection, schedule: Q01DX005 (ip), vehicle: saline); 152 % of control (dose: 50.0 mg/kg/injection, schedule: Q01DX007 (ip), vehicle: saline); 154 % of control and 188 % of control (dose: 50.0 mg/kg/injection, schedule: Q01DX009 (ip), vehicle: saline). In addition, the T/C by setting is: (dose: 50.0 mg/kg/injection, schedule: Q01DX009 (sc), vehicle: saline) 107 % of control; (dose: 100.0 mg/kg/injection, schedule: Q01DX001 (sc), vehicle: saline) 101 % of control; (dose: 100.0 mg/kg/injection, schedule: Q01DX005 (ip), vehicle: saline) 223 % of control; (dose: 100.0 mg/kg/injection, schedule: Q01DX007 (ip), vehicle: saline) 225 % of control; (dose: 100.0 mg/kg/injection, schedule: Q01DX009 (ip), vehicle: saline) 250 % of control and 314 % of control; (dose: 100.0 mg/kg/injection, schedule: Q01DX009 (oral), vehicle: saline) 98 % of control. The T/C is 102 % of control (dose: 100.0 mg/kg/injection, schedule: Q01DX009 (sc), vehicle: saline); 154 % of control (dose: 100.0 mg/kg/injection, schedule: Q03DX003 (ip), vehicle: saline); 163 % of control (dose: 100.0 mg/kg/injection, schedule: Q04DX003 (ip), vehicle: saline); 160 % of control (dose: 100.0 mg/kg/injection, schedule: Q## X024 (ip), vehicle: saline); 155 % of control (dose: 200.0 mg/kg/injection, schedule: Q01DX001 (ip), vehicle: saline); 103 % of control (dose: 200.0 mg/kg/injection, schedule: Q01DX001 (oral), vehicle: saline). For the same compound, the T/C by setting is: (dose: 200.0 mg/kg/injection, schedule: Q01DX001 (sc), vehicle: saline) 102 % of control; (dose: 200.0 mg/kg/injection, schedule: Q01DX007 (ip), vehicle: saline) 90 % of control; (dose: 200.0 mg/kg/injection, schedule: Q01DX009 (ip), vehicle: saline) 217 % of control; (dose: 200.0 mg/kg/injection, schedule: Q01DX009 (oral), vehicle: saline) 88 % of control; (dose: 200.0 mg/kg/injection, schedule: Q01DX009 (sc), vehicle: saline) 119 % of control; (dose: 200.0 mg/kg/injection, schedule: Q03DX003 (ip), vehicle: saline) 186 % of control. Besides, the T/C (dose: 200.0 mg/kg/injection, schedule: Q03HX008 (ip), vehicle: saline) was 152 % of control; the T/C (dose: 200.0 mg/kg/injection, schedule: Q04DX003 (ip), vehicle: saline) is 156 % of control and 200 % of control; the T/C (dose: 200.0 mg/kg/injection, schedule: Q08DX002 (ip), vehicle: saline) is 172 % of control; the T/C (dose: 200.0 mg/kg/injection, schedule: Q## X016 (ip), vehicle: saline) was 198 % of control; the T/C (dose: 200.0 mg/kg/injection, schedule: Q## X024 (ip), vehicle: saline) was 230 % of control; the T/C (dose: 400.0 mg/kg/injection, schedule: Q01DX001 (ip), vehicle: saline) was 180 % of control. Besides, the T/C was 101 % of control (dose: 400.0 mg/kg/injection, schedule: Q01DX001 (oral), vehicle: saline); 105 % of control (dose: 400.0 mg/kg/injection, schedule: Q01DX001 (sc), vehicle: saline); 116 % of control (dose: 400.0 mg/kg/injection, schedule: Q01DX009 (oral), vehicle: saline); 179 % of control (dose: 400.0 mg/kg/injection, schedule: Q03HX008 (ip), vehicle: saline); 325 % of control (dose: 400.0 mg/kg/injection, schedule: Q04DX003 (ip), vehicle: saline); 225 % of control (dose: 400.0 mg/kg/injection, schedule: Q08DX002 (ip), vehicle: saline). Also, the T/C runs as follows: (dose: 400.0 mg/kg/injection, schedule: Q## X016 (ip), vehicle: saline) 284 % of control; (dose: 400.0 mg/kg/injection, schedule: Q## X024 (ip), vehicle: saline) 374 % of control; (dose: 800.0 mg/kg/injection, schedule: Q01DX001 (ip), vehicle: saline) 206 % of control; (dose: 800.0 mg/kg/injection, schedule: Q01DX001 (oral), vehicle: saline) 102 % of control; (dose: 800.0 mg/kg/injection, schedule: Q01DX001 (sc), vehicle: saline) 105 % of control; (dose: 800.0 mg/kg/injection, schedule: Q01DX009 (oral), vehicle: saline) 98 % of control. For the same compound, the T/C reads like this: (dose: 800.0 mg/kg/injection, schedule: Q04DX003 (ip), vehicle: saline) 294 % of control; (dose: 800.0 mg/kg/injection, schedule: Q08DX002 (ip), vehicle: saline) 217 % of control; (dose: 800.0 mg/kg/injection, schedule: Q## X016 (ip), vehicle: saline) 235 % of control; (dose: 1600.0 mg/kg/injection, schedule: Q01DX001 (oral), vehicle: saline) 102 % of control.

As to `O=C([O][Sb]([O]C(=O)C(F)(F)F)([c]1ccccc1)([c]1ccccc1)[c]1ccccc1)C(F)(F)F`, the T/C (dose: 50.0 mg/kg/injection, schedule: Q04DX002 (ip), vehicle: saline with Tween-80) was 93 % of control; the T/C (dose: 100.0 mg/kg/injection, schedule: Q04DX002 (ip), vehicle: saline with Tween-80) is 93 % of control; the T/C (dose: 200.0 mg/kg/injection, schedule: Q04DX002 (ip), vehicle: saline with Tween-80) was 97 % of control.

Regarding `NC(N)=NC(N)=Nc1ccc([As](=O)(O)O)c(O)c1`, the T/C (dose: 100.0 mg/kg/injection, schedule: Q01DX009 (ip), vehicle: saline sonified) was 111 % of control.

In the case of `Cn1ncc2c1NC(c1ccc(F)cc1)SCC2=O` (configuration not stated), the T/C is, setting by setting: (dose: 25.0 mg/kg/injection, schedule: Q01DX009 (ip), vehicle: gum acacia) 95 % of control and 96 % of control; (dose: 50.0 mg/kg/injection, schedule: Q01DX009 (ip), vehicle: gum acacia) 97 % of control and 101 % of control; (dose: 100.0 mg/kg/injection, schedule: Q01DX009 (ip), vehicle: gum acacia) 92 % of control and 95 % of control and 103 % of control; (dose: 200.0 mg/kg/injection, schedule: Q01DX009 (ip), vehicle: gum acacia) 96 % of control and 104 % of control; (dose: 400.0 mg/kg/injection, schedule: Q01DX009 (ip), vehicle: gum acacia) 100 % of control.

Turning to `CC(C)(C)NC(=O)CCC1C2C=CC(C2)C1C#N` (configuration not stated), the T/C is 93 % of control under setting [1], 91 % of control under setting [2] and 98 % of control under setting [3].

For `N#CCc1ccccc1-c1ccccc1CC#N`, the T/C by setting is: (dose: 5.0 mg/kg/injection, schedule: Q01DX001 (ip), vehicle: other) 106 % of control; (dose: 10.0 mg/kg/injection, schedule: Q01DX001 (ip), vehicle: other) 100 % of control; (dose: 20.0 mg/kg/injection, schedule: Q01DX001 (ip), vehicle: other) 96 % of control; (dose: 40.0 mg/kg/injection, schedule: Q01DX001 (ip), vehicle: other) 104 % of control.

Turning to `Cc1ccc2cc(O)ccc2c1`, the T/C is 97 % of control (dose: 50.0 mg/kg/injection, schedule: Q01DX009 (ip), vehicle: saline with Tween-80) and 98 % of control under setting [4].

For `COC(=O)c1cc(-c2ccccc2)nc2c1ccc1ccccc12`, the T/C (dose: 100.0 mg/kg/injection, schedule: Q01DX001 (ip), vehicle: saline) was 94 % of control.

As for `c1ccc2c(c1)c1ccccc1c1nc3c(nc21)CCCC3`, the T/C under setting [1] is 102 % of control, the T/C under setting [2] was 96 % of control and the T/C under setting [3] is 96 % of control.

As for `CN1C=Cc2ccccc2C1`, the T/C runs as follows: under setting [5], 93 % of control; under setting [4], 93 % of control; under setting [6], 95 % of control; under setting [7], 93 % of control.

For `C=Cn1ccnc1`, the T/C was 103 % of control (dose: 25.0 mg/kg/injection, schedule: Q01DX001 (ip), vehicle: saline with Tween-80); 100 % of control (dose: 50.0 mg/kg/injection, schedule: Q01DX001 (ip), vehicle: saline with Tween-80); 114 % of control and 118 % of control under setting [5]; 97 % of control under setting [6]; 101 % of control under setting [7].

Values taken from PubChem BioAssay AID256 (DTP/NCI, 2004).
